Measured values reported in ChEMBL document CHEMBL1201862, “PubChem BioAssay data set” (2004).
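Interpolation was linear, between the two tested concentrations surrounding the appropriate level; five concentrations were tested over 48 hours in 96-well plates. GI50 marks 50% less growth.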 Active and inactive are the calls of the source. Rule as the data show it: active = GI50 up to about 1.1 µM and inactive = higher.

Columns and labels:
Test in all cases: inhibition of tumour cell growth, NCI panel, 48 h
CAKI-1 = tested on: CAKI-1
CCRF-CEM = tested on: CCRF-CEM
HCT-116 = tested on: HCT-116
HCT-15 = tested on: HCT-15
HT-29 = tested on: HT-29
K562 = tested on: K562
KM12 = tested on: KM12
M14 = tested on: M14
MDA-N = tested on: MDA-N
MOLT-4 = tested on: MOLT-4
NCI-H522 = tested on: NCI-H522
OVCAR-8 = tested on: OVCAR-8
RPMI-8226 = tested on: RPMI-8226
RXF 393 = tested on: RXF 393
SF-295 = tested on: SF-295
SK-MEL-28 = tested on: SK-MEL-28
SN12C = tested on: SN12C
UACC-62 = tested on: UACC-62
A498 = tested on: A498
MCF7 = tested on: MCF7

Row | SMILES | GI50 (CAKI-1) | GI50 (CCRF-CEM) | GI50 (HCT-116) | GI50 (HCT-15) | GI50 (HT-29) | GI50 (K562) | GI50 (KM12) | GI50 (M14) | GI50 (MDA-N) | GI50 (MOLT-4) | GI50 (NCI-H522) | GI50 (OVCAR-8) | GI50 (RPMI-8226) | GI50 (RXF 393) | GI50 (SF-295) | GI50 (SK-MEL-28) | GI50 (SN12C) | GI50 (UACC-62) | GI50 (A498) | GI50 (MCF7)
1 | Oc1ccc2ccccc2c1/N=N\c1cccc2ccccc12 | > 100 µM (inactive) | 58.1 µM (inactive) | > 100 µM (inactive) | > 100 µM | > 100 µM (inactive) | > 100 µM (inactive) | > 100 µM (inactive) | 95.9 µM (inactive) | > 100 µM (inactive) | 93.1 µM (inactive) | 82.6 µM (inactive) | > 100 µM (inactive) | > 100 µM (inactive) | > 100 µM (inactive) | > 100 µM (inactive) | > 100 µM (inactive) | > 100 µM (inactive) | > 100 µM (inactive) |  | 
2 | COc1cc2c(cc1OC)C(=O)N(c1ccc(O)cc1)C2 | > 100 µM (inactive) | > 100 µM (inactive) | > 100 µM (inactive) | > 100 µM | > 100 µM (inactive) | > 100 µM (inactive) |  | > 100 µM (inactive) | > 100 µM (inactive) | > 100 µM (inactive) | > 100 µM (inactive) | > 100 µM (inactive) | > 100 µM (inactive) | > 100 µM (inactive) | > 100 µM (inactive) | > 100 µM (inactive) | > 100 µM (inactive) | > 100 µM (inactive) | > 100 µM (inactive) | 
3 | Cc1ccc(NC(=O)C23CC4CC(CC(C4)C2)C3)c(C(=O)NNC(=O)c2ccc(Cl)cc2)c1 | 23.3 µM (inactive) | 21.1 µM (inactive) | 25.8 µM (inactive) | 17 µM | 23.7 µM (inactive) | 28.6 µM (inactive) | 21.3 µM (inactive) | 31.8 µM (inactive) | 20.2 µM (inactive) | 21.5 µM (inactive) | 12 µM (inactive) | 30.2 µM (inactive) | 19 µM (inactive) | 15 µM (inactive) | 22.9 µM (inactive) |  | 28.4 µM (inactive) | 19.5 µM (inactive) |  | 17.4 µM (inactive)
4 | CCOC(=O)c1c[nH]c(C(=O)OCC)c1-c1cccn1-c1ccccc1 | 20.9 µM (inactive) | 17.9 µM (inactive) | 15.6 µM (inactive) | 30.4 µM | 26.4 µM (inactive) | 15.4 µM (inactive) | 10.1 µM (inactive) | 20.2 µM (inactive) | 31.7 µM (inactive) | 15.3 µM (inactive) | 13 µM (inactive) | 19.2 µM (inactive) | 14.2 µM (inactive) | 16 µM (inactive) | 19.3 µM (inactive) | 32.4 µM (inactive) | 27 µM (inactive) | 17.4 µM (inactive) | 27 µM (inactive) | 
5 | CC(=O)CC1(OC(=O)C2C(C=C(C)C)C2(C)C)C(=O)Nc2ccccc21 (stereo not given) | > 100 µM (inactive) | 55.3 µM (inactive) | > 100 µM (inactive) | > 100 µM | > 100 µM (inactive) | 77.3 µM (inactive) | > 100 µM (inactive) | > 100 µM (inactive) | > 100 µM (inactive) | > 100 µM (inactive) | 64.6 µM (inactive) | > 100 µM (inactive) | 96.6 µM (inactive) | > 100 µM (inactive) | > 100 µM (inactive) | > 100 µM (inactive) | > 100 µM (inactive) | > 100 µM (inactive) | > 100 µM (inactive) | 
6 | C[N+](C)(CCNc1ccc(NCC[N+](C)(C)Cc2ccc([N+](=O)[O-])cc2)c2c1C(=O)c1c(O)ccc(O)c1C2=O)Cc1ccc([N+](=O)[O-])cc1 | > 50 µM (inactive) | > 50 µM (inactive) | 9.53 µM (inactive) | 35.8 µM | 17.7 µM (inactive) | > 5 µM (inactive) | 1.36 µM (inactive) | > 50 µM (inactive) | 46.7 µM (inactive) | > 5 µM (inactive) | > 50 µM (inactive) | > 50 µM (inactive) | > 50 µM (inactive) | > 50 µM (inactive) | 16.7 µM (inactive) | > 50 µM (inactive) | > 50 µM (inactive) | > 50 µM (inactive) | > 50 µM (inactive) | 
7 | COc1c2c(c(CC=C(C)C)c3oc(=O)c(-c4ccc(O)cc4)c(O)c13)OC(C)(C)C=C2 [LONCHOCARPIC ACID] | 40.6 µM (inactive) | 23.7 µM (inactive) | 15.7 µM (inactive) | 11.9 µM | 30 µM (inactive) | 29.5 µM (inactive) | 14.4 µM (inactive) | 25.8 µM (inactive) |  | 24.9 µM (inactive) | 23 µM (inactive) | 29 µM (inactive) | 19.5 µM (inactive) | 1.41 µM (inactive) | 28.2 µM (inactive) | 25.9 µM (inactive) | 27.5 µM (inactive) | 21.2 µM (inactive) | 31.8 µM (inactive) | 16.8 µM (inactive)
